17 compounds from US8410309B2, “Phenoxy carboxylic acid compounds and compositions for delivering active agents” (Emisphere Technologies, Inc., priority 1999, dated 2013) can be followed below.

Where “and” joins values, the source holds several entries; their conditions need not be identical. Equal entries are not always repeated.

Data set [1] can be described thus: Heparin oral/intracolonic delivery, clotting time by activated partial thromboplastin time (APTT). It counts as in vivo, Sprague-Dawley rats. Particulars: IC (intracolonic), rats; delivery agent compound 50 mg/kg, heparin 25 mg/kg, volume dose 1 ml; baseline about 20 seconds. As for the experimental part:
Oral gavage (PO) and/or intracolonic (IC) dosing solutions containing a delivery agent compound and heparin sodium USP were prepared in 25% aqueous propylene glycol. […] This dry mixture was dissolved in 25% v/v aqueous propylene glycol, vortexed, and placed in a sonicator (about 37° C.). The pH was adjusted to about 7 (6.5 to 8.5) with aqueous NaOH (2N). The dosing solution was sonicated to produce a clear solution. The final volume was adjusted to about 3.0 ml.
(§1) The typical dosing and sampling protocols were as follows. […] The dosing solution was expressed slowly into the colon by pressing the syringe plunger.
Citrated blood samples were collected by cardiac puncture following the administration of ketamine (88 mg/kg), typically at 0.25, 0.5, 1.0 and 1.5 hours after dosing. Heparin absorption was verified by an increase in clotting time measured by the activated partial thromboplastin time (APTT) according to the method of Henry, J. B., Clinical Diagnosis and Management by Laboratory Methods, Philadelphia, Pa., W.B. Saunders (1979). Previous studies indicated baseline values of about 20 seconds.

Data set [2] can be described thus: Recombinant human growth hormone (rhGH) oral delivery, serum rhGH by immunoassay. Particulars: oral gavage, rats, volume dose 1 ml.
Data set [3] can be described thus: Salmon calcitonin (sCT) oral delivery, serum sCT by EIA. The settings on record: rats, delivery agent compound dose 150 mg/kg, sCT dose 30 μg/kg.
Data set [4] can be described thus: Insulin oral delivery, serum human insulin by ELISA. Particulars: rats, delivery agent compound 200 mg/kg, insulin 0.5 mg/kg, 1 ml/kg. On the procedure: Oral dosing (PO) compositions of delivery agent compound and human zinc insulin (minimum 26 IU/mg available from Calbiochem—Novabiochem Corp, La Jolla, Calif.) were prepared in deionized water. […] The pH was adjusted to about 7 to 8.5 with NaOH or HCl. […] The final delivery agent compound dose, insulin dose and dose volume amounts are listed below in Table 8.
The typical dosing and sampling protocols were as follows.
Serum insulin levels were determined with an Insulin ELISA Test Kit (Kit # DSL-10-1600 from Diagnostic Systems Laboratories, Inc., Webster, Tex.), modifying the standard protocol in order to optimize the sensitivity and linear range of the standard curve for the volumes and concentrations of the samples used in the present protocol. […] The five values for each time point were averaged and the results plotted as serum insulin concentration versus time.
Background: ELISA stands for enzyme-linked immunosorbent assay.

A short description of data set [5]: Low molecular weight heparin (LMWH) oral/intracolonic delivery, plasma LMWH by anti-Factor Xa assay. The data set is classed as in vivo, Sprague-Dawley rats. The settings on record: IC, rats, LMWH 750 IU/kg, 1 ml/kg. As for the experimental part: Oral dosing (PO) and/or intracolonic (IC) compositions containing a delivery agent compound and low molecular weight heparin (LMWH) were prepared in 25% aqueous propylene glycol. […] Typically, the delivery agent compound and LMWH (Parnaparin, 91 IU/mg average molecular weight about 5,000, available from Opocrin, Modena, Italy) (typically 90-105 IU/mg, average molecular weight about 5,000) were mixed by vortex as dry powders. This dry mixture was dissolved in 25% v/v aqueous propylene glycol, vortexed, and placed in a sonicator (37° C.) to produce a clear solution. The pH was adjusted to about 7 (6.5-8.5) with 2N aqueous NaOH. The dosing solution was sonicated to produce a clear solution. The final volume was adjusted to 3.0 ml.
as §1
Citrated blood samples were collected by cardiac puncture following the administration of ketamine (88 mg/kg), typically at 0.5, 1.0, 2.0, 3.0 and 4.0 hours after dosing. LMWH absorption was verified by an increase in plasma LMWH measured by the anti-Factor Xa assay CHROMOSTRATE™ Heparin anti-Xa assay (available from Organon Teknika Corporation, Durham, N.C.). […] The peak of these mean plasma LMWH concentrations is reported below in Table 5.

[6] abbreviates: delivery agent compound 200 mg/kg, rhGH 3 mg/kg.
[7] abbreviates: delivery agent compound 50 mg/kg.
The mark [8] stands for this setting: delivery agent compound 25 mg/kg.

Regarding `O=C(O)CCCOc1ccccc1O` [Compound 4], the “Mean Peak APTT ± SD” value in data set [1] was 40.3 ± 17.8 s and 23.076 ± 4.72 s and 37.148 ± 39.67 s. Further, in data set [2] (setting [6]), the “Mean Peak Serum [rhGH]” value came out at 12.6 ng/mL. The “Mean Peak Serum sCT (pg/ml ± SD) (SE)” value in data set [3] (dose volume 1 (ml), 150 mg/kg) is 187 ± 177 pg/mL and 195 ± 436 pg/mL.

With `O=C(O)CCCCCCCCCOc1ccccc1O` [Compound 8], in data set [4], the “Mean Peak Serum [INS] ± SD” value was 13.14 ± 6.81 μU/ml. The “Mean Peak APTT ± SD” value in data set [1] stood at 251.94 ± 67.96 s. In addition, the “Mean Peak Serum [rhGH]” value in data set [2] (setting [6]) stood at 4.88 ng/mL. Besides, the “Mean Peak Serum sCT (pg/ml ± SD) (SE)” value in data set [3] (dose volume 1 (ml), 150 mg/kg) was 166 ± 190 pg/mL and 194 ± 239 pg/mL and 327 ± 323 pg/mL; in data set [3] (dose volume 2 (ml)), 36 ± 49 pg/mL.

Turning to `CC(=O)c1ccccc1OCCCC(=O)O` [Compound 9], in data set [1], the “Mean Peak APTT ± SD” value was 21.45 ± 1.71 s. Also, the “Mean Peak Serum [rhGH]” value in data set [2] (setting [6]) was 1 ng/mL. Further, the “Mean Peak Plasma LMWH Concentration ± SD” value in data set [5] (setting [7]) amounted to 0.474 ± 0.095 IU/ml.

For the compound `CC=Cc1ccccc1OCCCCCCCC(=O)O` [Compound 18], the “Mean Peak Serum [rhGH]” value is 3.1 ng/mL in data set [2] (delivery agent compound 162 mg/kg, rhGH 2.6 mg/kg) and 223 ng/mL in data set [2] (setting [6]). Also, in data set [3] (dose volume 2 (ml)), the “Mean Peak Serum sCT (pg/ml ± SD) (SE)” value amounted to 14 ± 4183 pg/mL.

Regarding `Nc1ccccc1OCCCCCCCC(=O)O` [Compound 19], in data set [4], the “Mean Peak Serum [INS] ± SD” value worked out at 4.32 ± 1.39 μU/ml. Besides, the “Mean Peak Serum [rhGH]” value in data set [2] (setting [6]) was 39.5 ng/mL. In addition, in data set [5] (setting [7]), the “Mean Peak Plasma LMWH Concentration ± SD” value came to 0.65 ± 0.37 IU/ml.

Take `O=C(O)CCCCCCCOc1ccccc1[N+](=O)[O-]` [Compound 20]: the “Mean Peak Serum [INS] ± SD” value in data set [4] amounted to 27.68 ± 12.5 μU/ml. In data set [2] (setting [6]), the “Mean Peak Serum [rhGH]” value was 22.6 ng/mL. Also, the “Mean Peak Serum sCT (pg/ml ± SD) (SE)” value in data set [3] (dose volume 1 (ml), 150 mg/kg) is 138 ± 107 pg/mL and 85 ± 82 pg/mL and 96 ± 135 pg/mL.

As for `Nc1ccccc1OCCCCC(=O)O` [Compound 21], the “Mean Peak Serum [INS] ± SD” value in data set [4] was found to be 14.46 ± 21.61 μU/ml. Moreover, the “Mean Peak Serum [rhGH]” value in data set [2] (setting [6]) was 19.6 ng/mL.

Regarding `Nc1cc(Cl)ccc1OCCCCCCCC(=O)O` [Compound 22], the “Mean Peak Serum [INS] ± SD” value in data set [4] came to 24.16 ± 28.11 μU/ml. In addition, the “Mean Peak APTT ± SD” value in data set [1] stood at 287.9 ± 120.1 s. Also, the “Mean Peak Serum [rhGH]” value in data set [2] (setting [6]) was 0 ng/mL. Further, the “Mean Peak Plasma LMWH Concentration ± SD” value in data set [5] (delivery agent compound 10 mg/kg) was 0.396 ± 0.153 IU/ml; in data set [5] (setting [8]), 1.496 ± 0.153 IU/ml; in data set [5] (setting [7]), 1.842 ± 0.205 IU/ml.

`Nc1cc(Cl)ccc1OCCCCC(=O)O` [Compound 23]: in data set [3] (dose volume 1 (ml), 150 mg/kg), the “Mean Peak Serum sCT (pg/ml ± SD) (SE)” value was 161 ± 150 pg/mL and 122 ± 273 pg/mL.

For `CC(=O)Nc1ccccc1OCCCCCCCC(=O)O` [Compound 24], in data set [2] (setting [6]), the “Mean Peak Serum [rhGH]” value was 1.76 ng/mL.

With `CCC(=O)c1ccccc1OCCCCCC(=O)O` [Compound 27], the “Mean Peak Serum [rhGH]” value in data set [2] (setting [6]) turned out to be 12.9 ng/mL. Moreover, the “Mean Peak Plasma LMWH Concentration ± SD” value in data set [5] (setting [7]) is on record as 1.622 ± 0.265 IU/ml. In addition, in data set [3] (dose volume 1 (ml)), the “Mean Peak Serum sCT (pg/ml ± SD) (SE)” value worked out at 163 ± 106 pg/mL.

Turning to `CCC(=O)c1ccccc1OCCCCCCCC(=O)O` [Compound 28], in data set [1], the “Mean Peak APTT ± SD” value was 143.6 ± 44 s and 251.1 ± 109.34 s. Further, the “Mean Peak Plasma LMWH Concentration ± SD” value in data set [5] (setting [8]) was 1.43 ± 0.31 IU/ml; in data set [5] (setting [7]), 1.64 ± 0.45 IU/ml. Further, the “Mean Peak Serum sCT (pg/ml ± SD) (SE)” value in data set [3] (dose volume 1 (ml)) was 138 ± 90 pg/mL.

Turning to `CCC(=O)c1ccccc1OCCCCCCCCCC(=O)O` [Compound 29], the “Mean Peak APTT ± SD” value in data set [1] was 105.01 ± 115.28 s and 111.46 ± 108.58 s. Moreover, in data set [2] (setting [6]), the “Mean Peak Serum [rhGH]” value came out at 0 ng/mL.

With `COc1ccccc1OCCCCCCCC(=O)O` [Compound 35], the “Mean Peak Serum [INS] ± SD” value in data set [4] came to 132.3 ± 154.5 μU/ml. The “Mean Peak APTT ± SD” value in data set [1] is 65.8 ± 35.5 s.

With `CC(O)c1ccccc1OCCCCCCCC(=O)O` (stereo not shown) [Compound 36], the “Mean Peak Serum [rhGH]” value in data set [2] (setting [6]) is 0 ng/mL. In addition, the “Mean Peak Serum sCT (pg/ml ± SD) (SE)” value in data set [3] (dose volume 1 (ml)) is 0 ± 62 pg/mL.

Take `CC(C)(O)c1ccccc1OCc1ccc(C(=O)O)cc1` [Compound 37]: the “Mean Peak Serum [rhGH]” value in data set [2] (setting [6]) turned out to be 29 ng/mL.

For `COc1cccc(OCCCCCCCC(=O)O)c1C(C)=O` [Compound 39], in data set [2] (setting [6]), the “Mean Peak Serum [rhGH]” value came out at 0 ng/mL. In addition, the “Mean Peak Serum sCT (pg/ml ± SD) (SE)” value in data set [3] (dose volume 1 (ml), 150 mg/kg) is 115 ± 120 pg/mL and 115 ± 178 pg/mL.
